Test results taken from patent US7049331B2, “1,2,4-thiadiazole derivatives as melanocortin receptor modulators” (Ortho-McNeil Pharmaceutical, Inc., priority 2001, dated 2006).
Where two headings read alike, the source gives them in different places. Values belong to the molecule of their own block, whether it stands above or below them.

Tests used:
[1] = target: T1, melanocortin MC-4 receptor (Homo sapiens, UniProt P32245); test: MC-4 receptor binding (Filtration); settings: Filtration; for IC50: read-out: IC50 MC-4 (μM) (Filtration)
T1 construct: purchased Receptor Biology Inc
Protocol: The procedures described above for the melanocortin MC-4 receptor were repeated for the melanocortin MC-3 receptor. Following the procedures described, representative compounds of the present invention were tested for binding in the MC-4 and/or MC-3 assay, as listed in Table 4.

[2] = target: T1, melanocortin MC-4 receptor; test: Melanocortin MC-4 Receptor Binding Assay (SPA)
Protocol: Melanocortin MC-4 Receptor Binding Assay Melanocortin [MC-4]-membrane [purchased from Receptor Biology Inc] was coupled to wheat germ agglutinin coated polyvinyl toluene-Scintillation Proximity Assay beads [purchased from Amersham Pharmacia Inc.] for 30 min at 25° C. Into each well of a 96-well Opti plate [purchased from Packard, Calif.], 2.5 μg of membrane and 0.25 mg of beads were mixed in a volume of 100 μL media. […] Test compounds (1.5 μL) at 1 mM in 30% DMSO-50 mM HEPES, pH 7.4 buffer was added to separate wells on the plate. Radioactive ligand ^125I-NDP-melanocyte stimulating hormone [NEN, 2000Ci/mmol] was added to each well (48.5 μL per well, 40 pM final concentration). The plate was then sealed and let stand for 16 hr at 25° C. NDP-Melanocyte stimulating hormone peptide and α-melanocyte stimulating hormone peptide [purchased from Palomar Research Inc, 1 μM] were used as reference inhibitor compounds to define non-specific binding (N). Total binding (T) was defined using 30% DMSO-50 mM HEPES, pH 7.4 buffer. Bound radioactivity for each well (Y), measured at counts per minute (cpm) was measured in a TopCount [Packard, Calif.]. Percent inhibition was calculated as: […] The procedures described above for the melanocortin MC-4 receptor were repeated for the melanocortin MC-3 receptor. Following the procedures described, representative compounds of the present invention were tested for binding in the MC-4 and/or MC-3 assay, as listed in Table 4.

Hippocampal Cells = test: Neurite Cell Outgrowth Assay, hippocampal cells; type: cell-based; settings: Rattus norvegicus; 50 nM; percent change over the vehicle response; NA = no change/not active
Source text: (§1) Dissociated hippocampal and cortical cell cultures were established from embryonic day 18 rat fetuses as described by Mattson, M. P., Barger, S. W., Begley, J, and Mark, R. J., Methods Cell Biol., 1994, 46:[…]. Briefly, fetuses were removed via cesarean section from pregnant moms (Sprague-Dawley) and anesthetized with halothane according to the AVMA Panel on Euthanasia. Pups were decapitated and the brains were removed and placed in HEPES-buffered Hank's Balanced Salt solution (HBSS; Gibco). The hippocampi and cortices were dissected out and pooled according to tissue-type. Tissue was trypsinized for 15 min (1 mg/ml trypsin-HBSS; Worthington), rinsed with fresh HBSS, incubated in trypsin inhibitor (1 mg/ml; Sigma) for 5 min, rinsed again with fresh HBSS and then triturated in 1 ml fresh HBSS with a fire-polished glass pipette. Dissociated cells were seeded at 30,000 cells/well onto poly-D-lysine coated 96-well plates (Collaborative BioScience). Each well contained 100 μl of Eagle's Minimal Essential Media (MEM; Gibco) supplemented with 26 mM NaHCO3 (Sigma), 56 mM glucose (Sigma), 15 mM KCl (Sigma), 1 mM sodium pyruvate (Sigma), 1.1 mM L-glutamine (Sigma), 10% (v/v) heat-inactivated fetal bovine serum (Hyclone), and 0.001% gentamicin sulfate (Sigma) (pH 7.4). Cells were allowed to attach for 24 h in a humidified 37° C. 5% CO2 incubator before experimental treatment. The culture media was aspirated and exchanged with fresh media every 3 days.
(§2) Twenty-four hours after plating, cultures were treated with vehicle (PBS+0.1% BSA), alpha-melanocyte stimulating hormone (α-MSH) or test compound (diluted in DPBS). Each treatment condition was run in quadruplicate. On the third day in culture, the media was aspirated off and replaced with fresh media and test compound. At one week in culture, the cells were fixed with 10% phosphate-buffered formalin for 15 min, then rinsed with DPBS (Sigma) and placed in blocking serum for 30 min (horse serum; 1:50 dilution in DPBS; Vector Labs). The cultures were rinsed again with DPBS and then incubated in primary antibody for 2 hr (microtubule-associated protein-2 (MAP-2) is a selective marker for dendritic processes; anti-mouse monoclonal (Chemicon); 1:1000 dilution of MAP-2 in antibody diluent (Zymed)). Negative control wells were incubated in antibody diluent alone. Background signal was determined by blank wells (cell-free) incubated with or without antibody. Cultures were rinsed again with DPBS and then placed in fluorescein for 1 hr (FITC; anti-mouse IgG; rat adsorbed; 1:50 dilution in DPBS; Vector Labs). Cultures were rinsed a final time with DPBS and the plates were then read on a Cytofluor 4000 fluorescence plate reader. Neurite outgrowth was expressed as percent change from control (vehicle).
(§3) The data are expressed as percent change over the vehicle response. All compounds were screened at 50 nM. The abbreviation NA indicates no change/not active; the abbreviation ND indicates a compound not tested/response not determined.

Cortical Cells = test: Neurite Cell Outgrowth Assay, cortical cells; type: cell-based; settings: Rattus norvegicus; 50 nM; percent change over the vehicle response; NA = no change/not active
Source text: as §1, §2, §3

Food-Deprived Rats = test: Rodent Feeding: Food Intake in Food-Deprived Rats (MC-4); type: in vivo, rat; settings: Rattus norvegicus
Source text: Rodent Feeding: Food Intake in Food-Deprived Rats (MC-4)
Male Long-Evans rats (180–200 grams) were housed individually and maintained on a once-a-day feeding schedule (i.e.10 a.m. until 4 p.m.) for five days following quarantine to allow the animals to acclimate to feeding on powdered chow (#5002 PMI Certified Rodent Meal) during the allotted time. The chow was made available in an open jar, anchored in the cage by a wire, with a metal follower covering the food to minimize spillage. Water was available ad-libitum.
Animals were fasted for 18 hours prior to testing. At the end of the fasting period, animals were administered either a test compound or vehicle. Vehicle and test compound were administered either orally (5 mL/kg) 60 minutes prior to the experiment, subcutaneously (1 mL/kg) 30 minutes prior to the experiment, or intraperitoneally (1 mL/kg) 30 minutes prior to the experiment. Test compounds were administered orally as a suspension in aqueous 0.5% methylcellulose-0.4% Tween 80, or intraperitoneally as a solution or suspension in PEG 200; compound concentrations typically ranged from 1 mg/kg to 100 mg/kg, preferably from 10–30 mg/kg. Food intake was measured at 2, 4, and 6 hours after administration by weighing the special jar containing the food before the experiment and at the specified times. Upon completion of the experiment, all animals were given a one-week washout period before re-testing.
Following the procedure described above, select compounds of the present invention were tested to measure the effect on food intake in fasted rats, as listed in Table 5 and 6.

[3] = ip, 2 h, ip, read-out: Change in Food Intake 0–2 hrs (%)
[4] = ip, 6 h, ip, read-out: Change in Food Intake 2–6 hrs (%)
[5] = po, 2 h, po, read-out: Change in Food Intake 0–2 hrs (%)
[6] = po, 6 h, po, read-out: Change in Food Intake 2–6 hrs (%)

T1 sequence (P32245 whole entry): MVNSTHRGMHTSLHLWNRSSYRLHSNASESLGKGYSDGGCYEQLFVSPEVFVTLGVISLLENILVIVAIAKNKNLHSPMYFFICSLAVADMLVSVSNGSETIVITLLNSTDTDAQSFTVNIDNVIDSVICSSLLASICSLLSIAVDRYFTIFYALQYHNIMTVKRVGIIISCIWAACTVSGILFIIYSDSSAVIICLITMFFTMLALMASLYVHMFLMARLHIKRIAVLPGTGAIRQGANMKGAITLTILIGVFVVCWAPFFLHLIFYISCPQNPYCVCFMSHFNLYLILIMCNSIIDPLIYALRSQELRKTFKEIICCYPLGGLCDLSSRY

SMILES: Cc1ccc(-[n+]2sc(Nc3ccccc3)nc2-c2ccccc2)cc1 [Compound 2]
- IC50 [1]: 1.5 µM
- IC50 [2]: 234 nM
- activation at 0.05 µM (Hippocampal Cells): 18%
- activation at 0.05 µM (Cortical Cells): 18%

SMILES: COc1ccccc1Nc1nc(-c2ccccc2)[n+](-c2ccc(C)cc2)s1 [Compound 3]
- IC50 [1]: 0.7 µM
- IC50 [2]: 159 nM
- activation at 0.05 µM (Hippocampal Cells): 17%
- activation at 0.05 µM (Cortical Cells): 23%

SMILES: Cc1ccc(Nc2nc(-c3ccccc3)[n+](-c3ccc(C)cc3)s2)cc1 [Compound 4]
- IC50 MC-4 (μM) (Filtration) [1]: inactive
- IC50 [2]: 297 nM
- activation at 0.05 µM (Hippocampal Cells): 20%
- activation at 0.05 µM (Cortical Cells): 21%

SMILES: Cc1ccc(-[n+]2sc(Nc3ccccc3C)nc2-c2ccccc2)cc1 [Compound 5]
- IC50 [1]: 1.3 µM
- IC50 [2]: 207 nM
- activation at 0.05 µM (Hippocampal Cells): 28%
- activation at 0.05 µM (Cortical Cells): 9%

SMILES: Cc1ccc(-[n+]2sc(Nc3ccc(Cl)cc3)nc2-c2ccccc2)cc1 [Compound 6]
- IC50 [1]: 2.5 µM
- IC50 [2]: 293 nM
- activation at 0.05 µM (Hippocampal Cells): 23%
- activation at 0.05 µM (Cortical Cells): 24%

SMILES: Cc1ccc(-[n+]2sc(Nc3ccccc3Cl)nc2-c2ccccc2)cc1 [Compound 7]
- IC50 [1]: 2.2 µM
- IC50 [2]: 218 nM
- activation at 0.05 µM (Cortical Cells): 11%

SMILES: Cc1ccccc1-[n+]1sc(Nc2ccccc2)nc1-c1ccccc1 [Compound 8]
- IC50 [1]: 1.4 µM
- IC50 [2]: 201 nM
- activation at 0.05 µM (Cortical Cells): 12%

SMILES: COc1ccc(Nc2nc(-c3ccccc3)[n+](-c3ccccc3C)s2)cc1 [Compound 9]
- IC50 [1]: 1.1 µM
- IC50 [2]: 217 nM

SMILES: COc1ccccc1Nc1nc(-c2ccccc2)[n+](-c2ccccc2C)s1 [Compound 10]
- IC50 [1]: 2.3 µM
- IC50 [2]: 130 nM
- activation at 0.05 µM (Hippocampal Cells): 7%
- activation at 0.05 µM (Cortical Cells): 11%

SMILES: Cc1ccc(Nc2nc(-c3ccccc3)[n+](-c3ccccc3C)s2)cc1 [Compound 11]
- IC50 [1]: 2.4 µM
- IC50 [2]: 243 nM
- activation at 0.05 µM (Hippocampal Cells): 9%
- activation at 0.05 µM (Cortical Cells): 10%

- IC50 MC-4 (μM) (Filtration) [1]: insoluble
- IC50 MC-4 (nM) (SPA) [2]: insoluble
SMILES: Cc1ccccc1Nc1nc(-c2ccccc2)[n+](-c2ccccc2C)s1 [Compound 12]
- activation at 0.05 µM (Hippocampal Cells): 28%
- activation at 0.05 µM (Cortical Cells): 20%

SMILES: Cc1ccccc1-[n+]1sc(Nc2ccc(Cl)cc2)nc1-c1ccccc1 [Compound 13]
- IC50 [1]: 3.4 µM
- IC50 [2]: 347 nM
- activation at 0.05 µM (Hippocampal Cells): 29%
- activation at 0.05 µM (Cortical Cells): 32%

SMILES: Cc1ccccc1-[n+]1sc(Nc2ccccc2Cl)nc1-c1ccccc1 [Compound 14]
- IC50 [1]: 5.6 µM
- IC50 [2]: 234 nM
- activation at 0.05 µM (Hippocampal Cells): 30%
- activation at 0.05 µM (Cortical Cells): 19%

SMILES: Clc1ccc(-[n+]2sc(Nc3ccccc3)nc2-c2ccccc2)cc1 [Compound 15]
- IC50 [1]: 4.5 µM
- IC50 [2]: 482 nM
- activation at 0.05 µM (Hippocampal Cells): 18%
- activation at 0.05 µM (Cortical Cells): 31%

SMILES: Cc1ccccc1Nc1nc(-c2ccccc2)[n+](-c2ccc(Cl)cc2)s1 [Compound 19]
- IC50 [1]: 3.9 µM
- IC50 [2]: 460 nM
- activation at 0.05 µM (Hippocampal Cells): 22%

SMILES: Clc1ccc(Nc2nc(-c3ccccc3)[n+](-c3ccc(Cl)cc3)s2)cc1 [Compound 20]
- IC50 [1]: 3.5 µM
- IC50 [2]: 636 nM
- activation at 0.05 µM (Hippocampal Cells): 17%

SMILES: Cc1ccccc1Nc1nc(-c2ccccc2)[n+](-c2ccccc2)s1 [Compound 26]
- IC50 [2]: 63 nM
- change in vivo at 10 mg/kg (Food-Deprived Rats; [3]): -12.7%
- change in vivo at 10 mg/kg (Food-Deprived Rats; [4]): -32.3%
- activation at 0.05 µM (Hippocampal Cells): 16%
- activation at 0.05 µM (Cortical Cells): 47%

SMILES: Clc1ccc(Nc2nc(-c3ccccc3)[n+](-c3ccccc3)s2)cc1 [Compound 27]
- IC50 [2]: 89 nM
- change in vivo at 30 mg/kg (Food-Deprived Rats; [3]): -27.4%
- change in vivo at 30 mg/kg (Food-Deprived Rats; [4]): -29.1%
- activation at 0.05 µM (Hippocampal Cells): 17%
- activation at 0.05 µM (Cortical Cells): 52%

SMILES: COc1ccc(Nc2nc(-c3ccccc3)[n+](-c3ccccc3OC)s2)cc1 [Compound 29]
- IC50 [2]: 48 nM
- change in vivo at 10 mg/kg (Food-Deprived Rats; [3]): -62.3%
- change in vivo at 10 mg/kg (Food-Deprived Rats; [4]): -70.7%
- change in vivo at 30 mg/kg (Food-Deprived Rats; [5]): -26.3%
- change in vivo at 30 mg/kg (Food-Deprived Rats; [6]): -3.7%
- activation at 0.05 µM (Cortical Cells): 8%

SMILES: COc1ccccc1-[n+]1sc(Nc2ccccc2C)nc1-c1ccccc1 [Compound 32]
- IC50 [2]: 48 nM
- change in vivo at 10 mg/kg (Food-Deprived Rats; [3]): -29.6%
- change in vivo at 10 mg/kg (Food-Deprived Rats; [4]): -60.2%
- change in vivo at 1 mg/kg (Food-Deprived Rats; [5]): -13.8%
- change in vivo at 3 mg/kg (Food-Deprived Rats; [5]): -11.5%
- change in vivo at 10 mg/kg (Food-Deprived Rats; [5]): -20%
- change in vivo at 30 mg/kg (Food-Deprived Rats; [5]): -12.5%
- change in vivo at 1 mg/kg (Food-Deprived Rats; [6]): 26%
- change in vivo at 3 mg/kg (Food-Deprived Rats; [6]): 31.2%
- change in vivo at 10 mg/kg (Food-Deprived Rats; [6]): -1%
- change in vivo at 30 mg/kg (Food-Deprived Rats; [6]): -15%
- activation at 0.05 µM (Cortical Cells): 6%

SMILES: COc1ccccc1-[n+]1sc(Nc2ccccc2Cl)nc1-c1ccccc1 [Compound 34]
- IC50 [2]: 46 nM
- change in vivo at 10 mg/kg (Food-Deprived Rats; [3]): -38%
- change in vivo at 10 mg/kg (Food-Deprived Rats; [4]): -72%
- change in vivo at 10 mg/kg (Food-Deprived Rats; [5]): -1.3%
- change in vivo at 30 mg/kg (Food-Deprived Rats; [5]): -7.5%
- change in vivo at 10 mg/kg (Food-Deprived Rats; [6]): -6%
- change in vivo at 30 mg/kg (Food-Deprived Rats; [6]): 2%
- activation at 0.05 µM (Cortical Cells): 22%

SMILES: Clc1ccccc1Nc1nc(-c2ccccc2)[n+](-c2ccccc2)s1 [Compound 49]
- IC50 [2]: 96 nM
- change in vivo at 30 mg/kg (Food-Deprived Rats; [3]): -20.6%
- change in vivo at 30 mg/kg (Food-Deprived Rats; [4]): -21.2%
- activation at 0.05 µM (Hippocampal Cells): 16%
- activation at 0.05 µM (Cortical Cells): 51%
